Test results from patent publication US20130202619A1, “METHODS AND MATERIALS FOR REDUCING LIVER FIBROSIS” (MAYO FOUNDATION FOR MEDICAL EDUCATION AND RESEARCH, priority 2010, published 2013).
Values joined by “and” are separate entries in the source; they are usually repeats but may differ in a detail not shown here. Equal entries are not always repeated. “Also recorded” adds a separate entry of the source.

How the values were obtained:
Format in all cases: cell-based, human
HuH7 cells [1] = assay: Lumican gene expression in HuH7 cells exposed to free fatty acids (real-time PCR); conditions: 400 μM fatty acid, 6 hours
Experimental: (§1) The hepatocyte cell line HuH7, the cholangiocyte cell line H69, and the hepatic stellate cell line LX2 were grown to confluence in DMEM with 10% fetal bovine serum and antibiotics Penicillin (100 U/mL) and Streptomycin (10 μg/mL) at 37° C. and 5% CO2 Cells were harvested, washed in cold phosphate buffered saline and snap frozen. […] At 24, 48 and 72 hours, cells were trypsin digested, washed three times with ice cold phosphate buffered saline and quick frozen at −80° C. in two separate lots for either protein or RNA extraction. In separate experiments, palmitic or stearic acid was added to the culture media of HuH7 cells at a concentration of 400 μM (Cazanave et al., J. Biol. Chem., 284:26591-26602 (2009)). All experiments were carried out in triplicate and results are reported as the average of triplicates.
(§2) Total RNA was isolated from cells collected from the cell culture experiments (described herein) or from liver tissue samples collected from patient or from mouse experiments (described herein) using the RNeasy Plus kit as per the manufacturer's instructions (Qiagen, GmbH, Germany). 500 ng of total RNA was reverse transcribed into cDNA using random hexamers (Transcriptor High Fidelity cDNA synthesis kit, Roche, USA). Real time PCR was carried on a LightCycler (Roche, CA, USA) using equal quantities of template cDNA in a total volume of 20 μL using Lightcycler FastStart DNA Master SYBR green1 (Roche, Indianapolis, USA). Expression of 18S rRNA was used as the internal standard (Quantum RNA 18S Internal Standards, Ambion Inc, Austin, Tex., USA). Standard curves were generated for each optimized assay using known PCR copy numbers to produce a linear plot of threshold cycle (Ct) against log dilution. Data for lumican is presented as lumican copy number normalized against the 18S absolute copy number where indicated. For all other gene expression assays, results are presented as fold change as represented by the expression 2^−ΔΔCt (Schmittgen & Livak, Nat. Protoc., 3:1101-1108 (2008)).
Gene expression data presented as copy number are expressed as mean±standard error. […]

HuH7 cells [2] = assay: Response of HuH7 cells to TGFβ1 (gene expression by real-time PCR, cell fate)
Experimental: as §1, §2
(§3) HuH7 or LX2 cells were plated at uniform density in single well chamber slides adopting the same protocol as for cell culture described above. At time points of 0, 24, 48, and 72 hours post seeding, medium was aspirated, slides were washed with phosphate buffered saline, air dried and stored at −80° C. until staining. Briefly, cells were fixed in acetone, followed by 1% paraformaldehyde. Cells were immunostained with anti human lumican at dilution of 1:50 (Santa Cruz, USA) and detected with appropriate FITC labeled secondary antibodies (MP Biomedicals, OH, USA). Negative controls consisted of identical treatments with omission of primary antibody. DAPI was used for nuclear staining (Sigma, MO, USA). Images were captured on an Olympus microscope with appropriate filter settings for FITC (green) and DAPI (blue).
(§4) Gene expression data presented as copy number are expressed as mean±standard error. Fold changes represent values normalized to 18S and to time point of 0 hours. To assess significance of difference between treatments, the paired 2-tailed student's test with equal variance was used. A p value of <0.05 was considered statistically significant.

LX2 cells = assay: Response of LX2 cells to TGFβ1 (gene expression by real-time PCR, cell fate)
Experimental: as §1, §2, §3, §4

[3] = HuH7 cells, TGFβ1 2 ng/mL, 48 hours

| Molecule | increase in lumican expression (HuH7 cells [1]) | increase in lumican expression (HuH7 cells [1]; listed as palmitic) | increase in collagen 1α1 gene expression (HuH7 cells [2]; HuH7 cells, TGFβ1 2 ng/mL, 24 hours) [fold] | increase in collagen 1α1 gene expression (HuH7 cells [2]; [3]) [fold] | increase in lumican gene expression (HuH7 cells [2]; [3]) | increase in lumican gene expression over baseline (HuH7 cells [2]; HuH7 cells, TGFβ1 2 ng/mL, 72 hours) | cell fate (apoptosis / proliferation) (HuH7 cells [2]; HuH7 cells, TGFβ1 2 ng/mL, over 72 hours) | decrease in albumin production (HuH7 cells [2]; HuH7 cells, TGFβ1, 24 hours) [fold] | increase in alpha smooth muscle actin expression (HuH7 cells [2]; HuH7 cells, TGFβ1, 48 hours) | decrease in albumin production (HuH7 cells [2]; HuH7 cells, TGFβ1, 48 hours (48-72 hours)) | beta 1 integrin expression (HuH7 cells [2]; HuH7 hepatocytes, TGFβ1 2 ng/mL, up to 72 hours) | increase in lumican gene expression over baseline (LX2 cells; LX2 cells, TGFβ1 2 ng/mL, 72 hours) [fold] | cell fate (apoptosis / proliferation) (LX2 cells; LX2 cells, TGFβ1 2 ng/mL, over 72 hours) | increase in alpha smooth muscle actin expression (LX2 cells; LX2 cells, TGFβ1, 48 hours) [fold] | increase in collagen 1α1 gene expression (LX2 cells; LX2 stellate cells, TGFβ1 2 ng/mL, 24 hours) [fold] | increase in collagen 1α1 gene expression (LX2 cells; LX2 stellate cells, TGFβ1 2 ng/mL, 48 hours) [fold] | beta 1 integrin expression (LX2 cells; LX2 stellate cells, TGFβ1 2 ng/mL, up to 72 hours) |
| --- | --- | --- | --- | --- | --- | --- | --- | --- | --- | --- | --- | --- | --- | --- | --- | --- | --- |
| CCCCCCCCCCCCCCCC(=O)O [palmitic acid] | 3.1 fold | three fold | – | – | – | – | – | – | – | – | – | – | – | – | – | – | – |
| CCCCCCCCCCCCCCCCCC(=O)O [stearic acid] | 1.9 fold and 2 fold | – | – | – | – | – | – | – | – | – | – | – | – | – | – | – | – |
| TGFβ1: pro-fibrotic cytokine transforming growth factor β1 (R&D systems), used at 2 ng/mL | – | – | 9 | > 100 | four fold | 15 fold and 14 fold | underwent apoptosis | 10 | fourfold; also recorded: four fold | five fold; also recorded: four fold | no change | 27 | continued to proliferate | 4.5 | 4 | 5 | gradual increase |
